Measurements taken from patent US20220257741A1, “COMBINATION THERAPY FOR CANCER” (IO Biotech ApS, priority 2016, published 2022).
Where “and” joins values, the source holds several entries; their conditions need not be identical. Equal entries are not always repeated. Entries after “also recorded” stand apart in the source; their conditions may differ.

Tests used:
[1] = tested on: PBMC; assay: Direct IFN-γ ELISpot of patient PBMC stimulated with IO102 peptide; format: cell-based, human; settings: patients treated with Ipilimumab without IDO-vaccine, before and after three series
[2] = tested on: Tregs and MDSC in peripheral blood; assay: Flow cytometry of regulatory cells in peripheral blood of patients; format: in vivo, human; settings: patients treated with Ipilimumab without the vaccine (data not shown)
Method: PBMC samples was thawed in 37° C. RPMI 1640 medium (Lonza) supplemented with 2.5 ml DNAse containing Pulmozyme (Roche) and 0.26 mmol MgCl (Herlev Hospital Pharmacy) per 100 ml buffer. All stainings were done in phosphate buffered saline (PBS)(Lonza) containing 0.5% bovine serum albumin (Sigma-Aldrich). The following antibodies were used: FoxP3-PE, HLA-DR-HV500, CD3-PE-Cy7, CD19-PE-Cy7, CD56-PE-Cy7, CD4-HV500, CD11b-APC, CD3-APC (purchased from BD Bioscience), CD33-FITC, CD124-PE (purchased from BD Pharmigen), HELIOS-PerCP-Cy5.5, CD14-BV421, CD25-BV421 (all purchased from Biolegend), CD127-FITC, CD39-PE-Cy7 (purchased from eBioscience). Additionally, all samples were stained with the LIVE/DEADR Fixable Near-IR Dead Cell Stain Kit (life technologies). For intracellular staining of transcription factors, we used the Foxp3/Transcription Factor Staining Buffer Set (eBioscience) according to the manufacturors instructions. Cells were acquired on a FACSCanto II using FACSDiva Software version 6.1.3 (BD Biosciences). Analysis of flow data was done using FlowJo software version 10 OSX (TreeStar, Inc., Ashland, Oreg.). Data-analysis was done after filtering of dead cells and doublets/triplets.
Tregs were defined as CD3+CD4+CD25highCD127-FOXP3+.
MDSC were defined as PBMC negative for lineage-markers CD3, CD19 and CD56 and additionally HLADR-/lowCD14+CD11b+CD33+CD124−.

[3] = tested on: metastatic melanoma; settings: phase III; cited from earlier work
[4] = Phase I clinical trial, adverse events graded by CTCAE v. 4.0; format: in vivo, human
Source text: Patients were enrolled in a First-in-Human phase I clinical trial at the Department of Oncology at Herlev Hospital, University of Copenhagen (Herlev, Denmark) from March 2014 to August 2014. The study was originally designed as a two-armed phase I study, combining IDO1-derived peptide vaccination with standard-of-care treatment with either Ipilimumab or Vemurafenib. Only data from patients treated with Ipilimumab in combination with vaccine is reported. […]
Primary end-point was toxicity. In addition, immune-response against the vaccine peptide and the clinical benefit of treatment were assessed. […]
Safety of the study treatment was assessed in terms of occurrence of adverse events, graded according to Common Terminology Criteria for Adverse Events (CTCAE) version 4.0. Anti-tumour activity was evaluated with positron emission tomography-computed tomography (PET-CT) scans obtained at baseline (up to 28 days before treatment initiation) after 12 weeks and every 8-12 weeks thereafter until progression. CT scans were evaluated according to Response Evaluation Criteria In Solid Tumors (RECIST) version 1.1. […]

[5] = tested on: TC-1 tumour; assay: TC-1 tumour model, peptide vaccination (Examples 7 and 8); format: in vivo, C57BL/6 mice
Method: C57BL/6 mice harbouring TC-1 tumour were treated with TC-1 specific E7-peptide ([…]; SEQ ID NO: 35) or IDO-Pep1 ([…]; SEQ ID NO: 33) and the efficacy of the peptide vaccines was assessed by tumour burden and survival. The mouse IDO peptide sequence (IDO-Pep1) was selected to provide a murine analog for the human IDO peptides tested in the earlier Examples, because the sequence of murine IDO1 differs to that of human IDO1.
4-6 week-old C57BL/6 mice were injected with 70,000 cell/ mouse of TC-1 cells. Treatment in respective groups was started when tumour reached an average size of approximately 0.075 cm3 (approx. 10 days after tumour inoculation). Peptides used for vaccination included TC1-specific E7-peptide ([…]; SEQ ID NO: 35) and IDO-Pep1 ([…]; SEQ ID NO: 33). The mouse IDO peptide was designed based on MHC class I and II binding algorithm. […] Mice were vaccinated two-three times with one-week interval, and the efficacy of the peptide vaccines was assessed by measuring tumour volume and/or overall survival.
C57BL/6 mice harbouring TC-1 tumour were treated with TC-1 specific E7-peptide ([…]; SEQ ID NO: 35), or IDO-Pep1 ([…]; SEQ ID NO: 33), or a combination of both E7 and IDO-Pep1. The efficacy of the vaccines was assessed by overall survival. […]

[6] = tested on: THP-1 cells; assay: 51Cr-release assay, PBMC killing of THP-1 (Example 4); format: cell-based; settings: peptide 0.1 μM, day 17, range of E/T ratios
Method: Buffycoats were thawed (day 0), washed twice, resuspended in medium, counted and plated into wells as set out in Table Z4. THP-1 cells were irradiated with 30 GY and washed twice in medium. THP-1 cells were counted and added to PBMC containing wells as set out in Table Z4 (total volume 2 ml). Plates were placed in an incubator at 37 degrees. On days 7 and 14, 1 ml supernatant/well was removed. Cells were harvested and analyzed for cytotoxic activity on day 17. A standard ^51Cr-release assay was used to measure the cytotoxic potential of the peptide treated PBMCs. ^51Cr labeled THP-1 cells were used as target cells and peptide treated PBMCs as effector cells. Triton-X treated wells was used as maximum measurable lysis and medium alone as minimum lysis.
% Specific lysis=((cpmsample−cpmminimum)/(cpmmaximum−cpmminimum))×100%

Which “Induction of IDO-specific cells (IO102 reactivity, ELISpot)” value [1] does the source give for Ipilimumab here?
The value was “no induction of IDO-specific cells”.

And the “Level of MDSC in peripheral blood” value [2]?
The value was “no change in MDSC”.

What about the “Level of Tregs in peripheral blood” value [2] of the same substance?
The value was “Reduced levels of Tregs”.

And the Clinical benefit rate [3]?
The Clinical benefit rate was about 30%.

What about the Overall response rate [3] of the same substance?
Its Overall response rate is 10.9%.

And the “Toxicity, Ipilimumab” value ([4]; adverse reactions by CTCAE v. 4.0, one table line per patient (01i-13i), attributed by treating physician, Ipilimumab 3 mg/kg plus IO102 vaccine)?
The value was “Grade II choroiditis and None (3×) and Pruritus grade I, Grade I and diarrhoea, and Grade II rash, grade II and diarrhoea (2×) and Grade II rash and Grade II rosacea, grade III and Grade II pruritus and Grade I nausea”.

What about the “Adverse reactions most likely related to Ipilimumab treatment” value ([4]; individual patients, CTCAE grade) of the same substance?
The value was “Two patients experienced grade II diarrhoea; also recorded: grade III diarrhoea; also recorded: two patients experienced grade II maculopapular rash; also recorded: flare in their pre-existing rosacea; also recorded: grade II choroiditis”.

With “MTYENMDIL (listed as Mus musculus) [IDO-Pep1]” as the substance, how does the “Anti-tumour effect (tumour volume and survival)” value ([5]; 100 μg/mouse s.c. with PADRE and QuilA, therapeutic) read?
The value was “anti-tumour protective effect; also recorded: greater protection than when vaccinated with tumour-specific peptide antigen, E7 peptide”.

For “RAHYNIVTF (Fragment of the E7 oncoprotein of HPV) [E7 peptide]”, which “Protection (overall survival)” value ([5]; 100 μg/mouse of each peptide s.c. with PADRE and QuilA) is on record?
Its value is “has therapeutic efficacy”.

For CILDSKLEVEALAQLLTFALK [IDO scrambled], which “Allogenic killing (lysis) of THP-1 cells by PBMCs” value [6] is on record?
The value was “induced less lysis of THP-1 cells”.
